Drawing on patent publication US10087172B2, “Compounds and their methods of use” (AGIOS PHARMACEUTICALS, INC, priority 2012, dated 2018), this text covers IC50 for 24 compounds.

Broadly, the IC50 is the concentration needed to halve the response being measured. The low end stands for higher potency, the high end for lower potency.

For this test, the target named is T1, glutaminase (GAC) (Homo sapiens, UniProt O94925).
T1 sequence (O94925 55-598 isoform O94925-3 limits assumed): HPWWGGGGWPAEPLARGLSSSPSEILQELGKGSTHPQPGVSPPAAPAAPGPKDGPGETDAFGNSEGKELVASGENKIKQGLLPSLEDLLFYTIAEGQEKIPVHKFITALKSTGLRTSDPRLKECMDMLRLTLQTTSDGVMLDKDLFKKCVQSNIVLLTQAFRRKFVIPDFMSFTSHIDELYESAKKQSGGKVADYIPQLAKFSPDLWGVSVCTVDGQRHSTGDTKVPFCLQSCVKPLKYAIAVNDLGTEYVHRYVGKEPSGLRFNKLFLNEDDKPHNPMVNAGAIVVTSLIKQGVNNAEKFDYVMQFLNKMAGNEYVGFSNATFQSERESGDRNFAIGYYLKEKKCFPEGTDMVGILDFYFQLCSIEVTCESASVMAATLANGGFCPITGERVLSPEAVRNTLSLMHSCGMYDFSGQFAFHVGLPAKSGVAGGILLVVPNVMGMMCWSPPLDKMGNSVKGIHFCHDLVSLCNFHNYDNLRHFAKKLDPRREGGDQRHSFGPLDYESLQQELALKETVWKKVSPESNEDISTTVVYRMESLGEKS
Briefly: Glutaminase (GAC) coupled endpoint enzymatic assay (glutamate dehydrogenase/diaphorase/resazurin, Ex544/Em590). It counts as biochemical. The settings on record: inhibition of glutaminase, tested in an assay of Example A or Example B; class symbols A-E. The text has this:
In certain embodiments, exemplary compounds of Formula I include the compounds described in Table 1 and in the Examples. A compound described herein may be tested for its ability to inhibit glutaminase, e.g., by an assay as described in the Examples. For simplicity, the inhibition activity of these compounds is represented as an IC50 tested in an assay of Example A or Example B in Table 1. […] “N/A” refers to compounds wherein the IC50 is unavailable.
In this example, the enzymatic activity of glutaminase is measured through a coupled endpoint assay. Glutamine and phosphate are supplied to GAC at a concentration equal to Km and AC50, respectively, and GAC concentration is adjusted to give a linear reaction for 60 minutes. The glutamate produced is converted to 2-OG by a kinetic excess of glutamate dehydrogenase. This second step is configured for 2× Km for NAD, since excess NAD is inhibitory. However, a kinetic excess of the third coupling enzyme, diaphorase, recycles NAD from NADH to keep the NAD concentration constant during the timecourse of the assay. Diaphorase, also supplied in kinetic excess, oxidizes NADH produced by GDH back to NAD with the concomitant reduction of rezasurin to the highly fluorescent resorufin. Resorufin in measured after the assay is stopped with SDS by Ex544/Em590. A reduction in the signal indicates inhibition of some component of the coupled enzyme system. Prospective hits are counterscreened against GDH/diaphorase alone to remove hits to the coupling enzyme system in a second assay.
2. Buffers 2× Buffer (300 mM NaCl, 100 mM HEPES pH 8.5, 0.1% BSA, 0.5 mM EDTA, 100 mM sodium phosphate pH 8.5) 5× Substrate Mix (1× Buffer final concentration, with 13 mM glutamine, 100 μM resazurin, 50 μg/ml diaphorase) 1.2× Enzyme Mix (1× Buffer final concentration, with 0.875 μg/ml GAC, 1.56 mM NAD, 6.25 units/ml GDH) Stop Mix (6% SDS in ddH2O) Reaction Procedure 1. Add 1 μl compound in 100% DMSO 2. Add 40 μl of Enzyme Mix and incubate for 60 minute at room temperature 3. Add 10 μl of Substrate Mix to start reaction 4. Stop reaction with 25 μl of 6% SDS and read Ex544 Em 590
For orientation: Alamar Blue is a resazurin reagent that responds to reducing activity.
`O=C(Cc1cccc(Cl)c1)Nc1nnc([C@H]2CCC[C@H](c3nnc(NC(=O)Cc4cccc(Cl)c4)s3)C2)s1` [Compound 43, N,N′-(5,5′-((1S,3S)-cyclohexane-1,3-diyl)bis(1,3,4-thiadiazole-5,2-diyl))bis(2-(3-chlorophenyl)acetamide)] registered an IC50 of 0.1 to 0.5 µM.
In turn, `O=C(/C=C/c1ccccn1)Nc1nnc([C@H]2CCC[C@H](c3nnc(NC(=O)/C=C/c4ccccn4)s3)C2)s1` [Compound 45, (2E,2′E)-N,N′-(5,5′-((1S,3S)-cyclohexane-1,3-diyl)bis(1,3,4-thiadiazole-5,2-diyl))bis(3-(pyridin-2-yl)acrylamide)] returned a half-inhibitory concentration (IC50) of 0.1 to 0.5 µM.
The compound `CSCCC(=O)Nc1nnc([C@H]2CCC[C@H](c3nnc(NC(=O)CCSC)s3)C2)s1` [Compound 46, N,N′-(5,5′-((1S,3S)-cyclohexane-1,3-diyl)bis(1,3,4-thiadiazole-5,2-diyl))bis(3-(methylthio)propanamide)] registered an IC50 of 0.1 to 0.5 µM.
`O=C(CCC(F)(F)F)Nc1nnc([C@H]2CCC[C@H](c3nnc(NC(=O)CCC(F)(F)F)s3)C2)s1` [Compound 47, N,N′-(5,5′-((1S,3S)-cyclohexane-1,3-diyl)bis(1,3,4-thiadiazole-5,2-diyl))bis(4,4,4-trifluorobutanamide)] yielded an IC50 of 1 to 2 µM.
The compound `O=C(Nc1nnc([C@H]2CCC[C@H](c3nnc(NC(=O)C4CCOC4)s3)C2)s1)C1CCOC1` (stereo partly drawn) [Compound 48, N,N′-(5,5′-((1S,3S)-cyclohexane-1,3-diyl)bis(1,3,4-thiadiazole-5,2-diyl))bis(tetrahydrofuran-3-carboxamide)] displayed an IC50 of 0.5 to 1 µM.
Regarding `O=C(CC1CC1)Nc1nnc([C@H]2CCC[C@H](c3nnc(NC(=O)CC4CC4)s3)C2)s1` [Compound 49, N,N′-(5,5′-((1S,3S)-cyclohexane-1,3-diyl)bis(1,3,4-thiadiazole-5,2-diyl))bis(2-cyclopropylacetamide)], the IC50 was in the range of 0.1 to 0.5 µM.
For `O=C(Cc1ccc(Cl)cc1)Nc1nnc([C@H]2CCC[C@H](c3nnc(NC(=O)Cc4ccc(Cl)cc4)s3)C2)s1` [Compound 50] the value was 0.1 to 0.5 µM.
In the case of `O=C(Cc1ccccc1Cl)Nc1nnc([C@H]2CCC[C@H](c3nnc(NC(=O)Cc4ccccc4Cl)s3)C2)s1` [Compound 51, N,N′-(5,5′-((1S,3S)-cyclohexane-1,3-diyl)bis(1,3,4-thiadiazole-5,2-diyl))bis(2-(2-chlorophenyl)acetamide)], the IC50 is 0.1 to 0.5 µM.
Compound `Nc1cccc(CC(=O)Nc2nnc([C@H]3CCC[C@H](c4nnc(NC(=O)Cc5cccc(N)c5)s4)C3)s2)c1` [Compound 53, N,N′-(5,5′-((1S,3S)-cyclohexane-1,3-diyl)bis(1,3,4-thiadiazole-5,2-diyl))bis(2-(3-aminophenyl)acetamide)] displayed an IC50 below 0.1 µM.
For the compound `CS(=O)(=O)c1cccc(CC(=O)Nc2nnc([C@H]3CCC[C@H](c4nnc(NC(=O)Cc5cccc(S(C)(=O)=O)c5)s4)C3)s2)c1` [Compound 54, N,N′-(5,5′-((1S,3S)-cyclohexane-1,3-diyl)bis(1,3,4-thiadiazole-5,2-diyl))bis(2-(3-(methylsulfonyl)phenyl)acetamide)], the IC50 was below 0.1 µM.
Consider `CC(=O)Nc1ccccc1CC(=O)Nc1nnc([C@H]2CCC[C@H](c3nnc(NC(=O)Cc4ccccc4NC(C)=O)s3)C2)s1` [Compound 55, N,N′-(5,5′-((1S,3S)-cyclohexane-1,3-diyl)bis(1,3,4-thiadiazole-5,2-diyl))bis(2-(2-acetamidophenyl)acetamide)], for which the IC50 was 0.1 to 0.5 µM.
`O=C(Cc1nccs1)Nc1nnc([C@H]2CCC[C@H](c3nnc(NC(=O)Cc4nccs4)s3)C2)s1` [Compound 61] displayed an IC50 of 0.1 to 0.5 µM.
For `O=C(Nc1nnc([C@H]2CCC[C@H](c3nnc(NC(=O)C4CCCC4)s3)C2)s1)C1CCCC1` [Compound 62, N,N′-(5,5′-((1S,3S)-cyclohexane-1,3-diyl)bis(1,3,4-thiadiazole-5,2-diyl))dicyclopentanecarboxamide] the value was 1 to 2 µM; for `CC(C)(CO)C(=O)Nc1nnc([C@H]2CCC[C@H](c3nnc(NC(=O)C(C)(C)CO)s3)C2)s1` [Compound 63, N,N′-(5,5′-((1S,3S)-cyclohexane-1,3-diyl)bis(1,3,4-thiadiazole-5,2-diyl))bis(3-hydroxy-2,2-dimethylpropanamide)], 0.5 to 1 µM; for `O=C(Cc1ccc([N+](=O)[O-])cc1)Nc1nnc([C@H]2CCC[C@H](c3nnc(NC(=O)Cc4ccc([N+](=O)[O-])cc4)s3)C2)s1` [Compound 64, N,N′-(5,5′-((1S,3S)-cyclohexane-1,3-diyl)bis(1,3,4-thiadiazole-5,2-diyl))bis(2-(4-nitrophenyl)acetamide)], 1 to 2 µM.
`CC(=O)Nc1cccc(CC(=O)Nc2nnc([C@H]3CCC[C@H](c4nnc(NC(=O)Cc5cccc(NC(C)=O)c5)s4)C3)s2)c1` [Compound 65, N,N′-(5,5′-((1S,3S)-cyclohexane-1,3-diyl)bis(1,3,4-thiadiazole-5,2-diyl))bis(2-(3-acetamidophenyl)acetamide)] registered an IC50 below 0.1 µM.
Regarding `CS(=O)(=O)c1ccc(CC(=O)Nc2nnc([C@H]3CCC[C@H](c4nnc(NC(=O)Cc5ccc(S(C)(=O)=O)cc5)s4)C3)s2)cc1` [Compound 66, N,N′-(5,5′-((1S,3S)-cyclohexane-1,3-diyl)bis(1,3,4-thiadiazole-5,2-diyl))bis(2-(4-(methylsulfonyl)phenyl)acetamide)], the IC50 was below 0.1 µM.
For `O=C(Cc1cccc([N+](=O)[O-])c1)Nc1nnc([C@H]2CCC[C@H](c3nnc(NC(=O)Cc4cccc([N+](=O)[O-])c4)s3)C2)s1` [Compound 69, N,N′-(5,5′-((1S,3S)-cyclohexane-1,3-diyl)bis(1,3,4-thiadiazole-5,2-diyl))bis(2-(3-nitrophenyl)acetamide)] the value was below 0.1 µM.
The compound `N#Cc1ccccc1CC(=O)Nc1nnc([C@H]2CCC[C@H](c3nnc(NC(=O)Cc4ccccc4C#N)s3)C2)s1` [Compound 72, N,N′-(5,5′-((1S,3S)-cyclohexane-1,3-diyl)bis(1,3,4-thiadiazole-5,2-diyl))bis(2-(2-cyanophenyl)acetamide)] displayed an IC50 below 0.1 µM.
`N#Cc1ccc(CC(=O)Nc2nnc([C@H]3CCC[C@H](c4nnc(NC(=O)Cc5ccc(C#N)cc5)s4)C3)s2)cc1` [Compound 74, N,N′-(5,5′-((1S,3S)-cyclohexane-1,3-diyl)bis(1,3,4-thiadiazole-5,2-diyl))bis(2-(4-cyanophenyl)acetamide)] returned an IC50 of 0.1 to 0.5 µM.
As for `O=C(Cc1ccccc1OC(F)(F)F)Nc1nnc([C@H]2CCC[C@H](c3nnc(NC(=O)Cc4ccccc4OC(F)(F)F)s3)C2)s1` [Compound 75, N,N′-(5,5′-((1S,3S)-cyclohexane-1,3-diyl)bis(1,3,4-thiadiazole-5,2-diyl))bis(2-(2-(trifluoromethoxy)phenyl)acetamide)], the IC50 lay in the range of 0.1 to 0.5 µM.
Compound `O=C(CC1CCCO1)Nc1nnc([C@H]2CCC[C@H](c3nnc(NC(=O)CC4CCCO4)s3)C2)s1` (stereo partly drawn) [Compound 77, N,N′-(5,5′-((1S,3S)-cyclohexane-1,3-diyl)bis(1,3,4-thiadiazole-5,2-diyl))bis(2-(tetrahydrofuran-2-yl)acetamide)] gave an IC50 of 1 to 2 µM.
With `COc1cc(CC(=O)Nc2nnc([C@H]3CCC[C@H](c4nnc(NC(=O)Cc5ccc(F)c(OC)c5)s4)C3)s2)ccc1F` [Compound 78, N,N′-(5,5′-((1S,3S)-cyclohexane-1,3-diyl)bis(1,3,4-thiadiazole-5,2-diyl))bis(2-(4-fluoro-3-methoxyphenyl)acetamide)], the IC50 was 0.1 to 0.5 µM.
The compound `O=C(CCc1ccccn1)Nc1nnc([C@H]2CCC[C@H](c3nnc(NC(=O)CCc4ccccn4)s3)C2)s1` [Compound 80, N,N′-(5,5′-((1S,3S)-cyclohexane-1,3-diyl)bis(1,3,4-thiadiazole-5,2-diyl))bis(3-(pyridin-2-yl)propanamide)] gave an IC50 of 0.1 to 0.5 µM.
